According to ChEMBL document CHEMBL1201862, “PubChem BioAssay data set” (2004):
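Values below derive from 48-hour exposures of cells grown in 96-well plates, with endpoints linearly interpolated between the two concentrations bracketing the appropriate inhibition level. GI50 = concentration required for 50% inhibition of growth.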 The source made the active and inactive calls. Rule as the data show it: active = GI50 up to about 1.1 µM and inactive = higher.

How the values were obtained:
Assay in all cases: NCI anticancer screen, dose series, 48 h
U-251 = test system: U-251
NCI-H226 = test system: NCI-H226
HCT-116 = test system: HCT-116
ACHN = test system: ACHN
SF-295 = test system: SF-295
HL-60 = test system: HL-60
OVCAR-3 = test system: OVCAR-3
SR = test system: SR
SK-OV-3 = test system: SK-OV-3
SF-268 = test system: SF-268
CCRF-CEM = test system: CCRF-CEM
TK-10 = test system: TK-10
SK-MEL-28 = test system: SK-MEL-28
UACC-62 = test system: UACC-62
MCF7 = test system: MCF7
CAKI-1 = test system: CAKI-1
NCI-H23 = test system: NCI-H23
EKVX = test system: EKVX
Hs-578T = test system: Hs-578T
KM12 = test system: KM12

| Structure (SMILES) | GI50 (U-251) | GI50 (NCI-H226) | GI50 (HCT-116) | GI50 (ACHN) | GI50 (SF-295) | GI50 (HL-60) | GI50 (OVCAR-3) | GI50 (SR) | GI50 (SK-OV-3) | GI50 (SF-268) | GI50 (CCRF-CEM) | GI50 (TK-10) | GI50 (SK-MEL-28) | GI50 (UACC-62) | GI50 (MCF7) | GI50 (CAKI-1) | GI50 (NCI-H23) | GI50 (EKVX) | GI50 (Hs-578T) | GI50 (KM12) |
| --- | --- | --- | --- | --- | --- | --- | --- | --- | --- | --- | --- | --- | --- | --- | --- | --- | --- | --- | --- | --- |
| Clc1ccc(-c2c(C3=NCCCN3)nnn2-c2ccc(Cl)cc2)cc1 | 49.8 µM (inactive) | 60.3 µM (inactive) | 28.9 µM (inactive) | > 78.2 µM (inactive) | 34.7 µM (inactive) | 17.5 µM (inactive) | > 78.7 µM (inactive) | 15.7 µM (inactive) | > 76.6 µM (inactive) | 48.8 µM (inactive) | 31.8 µM (inactive) | 40 µM (inactive) | 17.1 µM (inactive) | 18.5 µM (inactive) | 26.8 µM (inactive) | 60.1 µM (inactive) | > 79.1 µM (inactive) | 63.1 µM (inactive) | 26.9 µM (inactive) | 57.4 µM (inactive) |
| Cc1cc(C)n(C(=O)CSc2nc3ccc(I)cc3c(=O)n2Cc2ccccc2)n1 | 35.8 µM (inactive) | 62.7 µM (inactive) | 57 µM (inactive) | 44.5 µM (inactive) | 29.8 µM (inactive) | > 100 µM (inactive) | 58.6 µM (inactive) | > 100 µM (inactive) | 58.9 µM (inactive) | 17.3 µM (inactive) | 67.1 µM (inactive) | 41.6 µM (inactive) | > 100 µM (inactive) | 80.5 µM (inactive) | 96.6 µM (inactive) | 4.63 µM (inactive) | 65.8 µM (inactive) | 24 µM (inactive) | 20 µM (inactive) | 50.2 µM (inactive) |
| OC[C@]1(n2nc3ccccc3n2)OC[C@@H]1c1ccccc1 | 48.4 µM (inactive) | 32.2 µM (inactive) | 30.4 µM (inactive) | 36.6 µM (inactive) | 83.4 µM (inactive) | 31.4 µM (inactive) | 21.7 µM (inactive) | 32.2 µM (inactive) | > 100 µM (inactive) | 30.8 µM (inactive) | 36.1 µM (inactive) | 60.4 µM (inactive) | 28.2 µM (inactive) | 43.3 µM (inactive) | 33.7 µM (inactive) | 27.2 µM (inactive) | 48.2 µM (inactive) | > 100 µM (inactive) | 56 µM (inactive) | 45.6 µM (inactive) |
| CCC1CN2CCc3c([nH]c4ccccc34)[C@@](C(=O)OC)(c3cc4c(cc3OC)N(C)C3C(O)(C(=O)OC)C(C(=O)OC)C5(CC)C=CCN6CCC43C65)C[C@@H](C2)[C@@H]1C(C)(C)C (stereo not given in full) | 0.417 µM (active) | 0.267 µM (active) | 0.312 µM (active) | 0.6 µM (active) | 0.226 µM (active) | 0.305 µM (active) | 0.316 µM (active) | 0.473 µM (active) | 1 µM (active) | 0.615 µM (active) | 0.348 µM (active) | 1.09 µM (active) | 0.652 µM (active) | 0.494 µM (active) | 0.461 µM (active) | 4.27 µM (inactive) | 0.352 µM (active) | 1.98 µM (inactive) | 0.463 µM (active) | 0.419 µM (active) |
| COC(=O)c1cc(C(=CCC[C@H]2CC[C@@]3(C)C(CCC4C3CC[C@@]3(C)C4CC[C@@H]3C(C)CCCC(C)C)C2)c2cc(Cl)c(O)c(C(=O)OC)c2)cc(Cl)c1O (stereo not given in full) | > 10 µM (inactive) | > 10 µM (inactive) | > 10 µM (inactive) | > 10 µM (inactive) | > 10 µM (inactive) | > 10 µM (inactive) | > 10 µM (inactive) | > 10 µM (inactive) | > 10 µM (inactive) | > 10 µM (inactive) | > 10 µM (inactive) | > 10 µM (inactive) | > 10 µM (inactive) | > 10 µM (inactive) | > 10 µM (inactive) | > 10 µM (inactive) | > 10 µM (inactive) | > 10 µM (inactive) | > 10 µM (inactive) | > 10 µM (inactive) |
